Test results from ChEMBL document CHEMBL1156328, “Synthesis of cycloalkane-annelated 3-phenylsulfonyl-pyrazolo[1,5-a]pyrimidines and their evaluation as 5-HT6 receptor antagonists” (Bioorg Med Chem Lett, 2010).
Activity calls are given as the source filed them. The rule behind the calls is not given here.

How the values were obtained:
[1] = biological target: 5-hydroxytryptamine receptor 6 (Homo sapiens, UniProt P50406); assay: Antagonist activity at human 5HT6 receptor in HEK293 cells assessed as inhibition of serotonin-induced cAMP accumulation pretreated for 15 mins before serotonin challenge measured after 30 mins; assay type: functional, cell-based
5-hydroxytryptamine receptor 6, sequence (P50406 whole entry): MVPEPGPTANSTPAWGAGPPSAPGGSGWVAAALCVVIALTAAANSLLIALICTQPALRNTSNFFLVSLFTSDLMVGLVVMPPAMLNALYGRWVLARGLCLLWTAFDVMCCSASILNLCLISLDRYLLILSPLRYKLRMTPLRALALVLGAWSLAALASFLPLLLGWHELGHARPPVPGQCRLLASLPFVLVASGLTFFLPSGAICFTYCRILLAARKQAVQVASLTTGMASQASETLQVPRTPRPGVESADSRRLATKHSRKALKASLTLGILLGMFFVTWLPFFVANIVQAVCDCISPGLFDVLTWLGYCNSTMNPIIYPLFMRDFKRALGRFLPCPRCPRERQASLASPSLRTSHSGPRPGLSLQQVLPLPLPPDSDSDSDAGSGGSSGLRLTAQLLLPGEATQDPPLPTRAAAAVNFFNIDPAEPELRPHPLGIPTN

[2] = biological target: T1, 5-hydroxytryptamine receptor 2B (Homo sapiens, UniProt P41595); assay: Agonist activity at human 5HT2B receptor in HEK293 cells assessed as stimulation of intracellular calcium mobilization by Fura-2AM dye based spectrofluorimetry
T1 sequence (P41595 whole entry): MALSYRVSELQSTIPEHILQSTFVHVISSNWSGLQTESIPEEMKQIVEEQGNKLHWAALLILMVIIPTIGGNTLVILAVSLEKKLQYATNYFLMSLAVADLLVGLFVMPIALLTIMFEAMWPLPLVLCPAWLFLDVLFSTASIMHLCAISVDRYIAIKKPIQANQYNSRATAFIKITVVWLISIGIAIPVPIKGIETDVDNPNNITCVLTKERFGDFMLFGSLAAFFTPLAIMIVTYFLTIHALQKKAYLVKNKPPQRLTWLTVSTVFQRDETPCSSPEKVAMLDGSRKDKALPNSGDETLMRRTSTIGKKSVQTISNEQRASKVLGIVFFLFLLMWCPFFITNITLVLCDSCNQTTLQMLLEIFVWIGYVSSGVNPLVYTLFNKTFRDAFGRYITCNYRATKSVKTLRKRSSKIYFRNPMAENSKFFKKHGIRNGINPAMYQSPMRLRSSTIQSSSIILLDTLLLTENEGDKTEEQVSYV

[3] = biological target: T1, 5-hydroxytryptamine receptor 2B; assay: Antagonist activity at human 5HT2B receptor in HEK293 cells assessed as inhibition of alpha-ME-5-HT-induced intracellular calcium mobilization pretreated for 15 secs before alphaME-5-HT addition by Fura-2AM dye based spectrofluorimetry
[4] = biological target: hERG (KCNH2) (Homo sapiens, UniProt Q12809); assay: Inhibition of human recombinant ERG at 10 uM by patch clamp assay; conditions: recombinant human ERG channel
hERG (KCNH2), sequence (Q12809 whole entry): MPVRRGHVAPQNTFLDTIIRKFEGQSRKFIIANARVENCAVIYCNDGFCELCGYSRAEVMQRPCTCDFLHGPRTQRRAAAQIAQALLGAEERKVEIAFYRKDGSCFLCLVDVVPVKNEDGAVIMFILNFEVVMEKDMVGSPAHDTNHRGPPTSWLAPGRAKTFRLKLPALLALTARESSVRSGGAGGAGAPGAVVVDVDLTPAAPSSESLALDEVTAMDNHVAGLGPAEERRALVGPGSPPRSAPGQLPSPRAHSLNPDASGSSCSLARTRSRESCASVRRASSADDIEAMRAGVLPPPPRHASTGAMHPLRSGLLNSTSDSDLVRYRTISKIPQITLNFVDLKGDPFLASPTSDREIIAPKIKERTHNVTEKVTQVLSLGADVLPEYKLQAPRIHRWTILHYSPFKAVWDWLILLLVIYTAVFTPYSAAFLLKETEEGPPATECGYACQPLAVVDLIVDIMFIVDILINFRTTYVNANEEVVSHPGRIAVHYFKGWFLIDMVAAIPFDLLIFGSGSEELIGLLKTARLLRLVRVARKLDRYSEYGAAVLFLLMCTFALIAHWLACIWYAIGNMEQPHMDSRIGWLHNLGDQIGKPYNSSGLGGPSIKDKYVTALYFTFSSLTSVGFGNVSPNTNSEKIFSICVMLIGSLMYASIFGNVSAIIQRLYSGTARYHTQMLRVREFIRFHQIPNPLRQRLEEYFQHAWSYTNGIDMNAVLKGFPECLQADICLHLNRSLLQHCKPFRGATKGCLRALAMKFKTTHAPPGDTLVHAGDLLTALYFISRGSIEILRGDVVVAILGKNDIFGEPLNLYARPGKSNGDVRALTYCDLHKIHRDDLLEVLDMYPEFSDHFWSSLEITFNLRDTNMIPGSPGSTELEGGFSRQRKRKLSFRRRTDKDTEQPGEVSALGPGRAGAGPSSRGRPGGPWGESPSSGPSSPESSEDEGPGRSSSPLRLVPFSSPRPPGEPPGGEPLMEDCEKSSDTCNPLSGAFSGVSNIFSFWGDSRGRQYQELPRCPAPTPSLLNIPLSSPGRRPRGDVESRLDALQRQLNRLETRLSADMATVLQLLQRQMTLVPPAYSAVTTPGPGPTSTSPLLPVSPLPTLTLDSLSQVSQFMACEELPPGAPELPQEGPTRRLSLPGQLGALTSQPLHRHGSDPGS

| IC50 [1] | Activity [2] | IC50 [3] | Structure (SMILES) | inhibition at 10 µM [4] |
| --- | --- | --- | --- | --- |
| 16.8 nM | inactive | 161 nM | CSc1nn2c3c(c(C)nc2c1S(=O)(=O)c1ccccc1)CCCC3 |  |
|  | inactive | 127 nM | CSc1nn2c(C)c3c(nc2c1S(=O)(=O)c1ccccc1)CCCC3 | 25% |

The remaining lines, values behind:

| Structure (SMILES) | IC50 [1] | Activity [2] | IC50 [3] | inhibition at 10 µM [4] |
| --- | --- | --- | --- | --- |
| CSc1nn2cc3c(nc2c1S(=O)(=O)c1ccccc1)CCCC3 | 98.5 nM |  |  |  |
| CSc1nn2c3c(cnc2c1S(=O)(=O)c1ccccc1)CCC3 | 6 nM | inactive | 118 nM |  |
| CSc1nn2c3c(cnc2c1S(=O)(=O)c1ccccc1)CCCC3 | 7.5 nM | inactive | 411 nM |  |
